From publication PMC6018403 (Frontiers in Pharmacology, 2018)
Read-outs that look alike come from different tables or passages of the source. Values belong to the compound of their own block, whether it stands above or below them.

Assays:
[1] = biological target: T1, P-glycoprotein (P-gp) (Homo sapiens, UniProt P08183); assay: P-gp inhibitor and inducer experiments on Caco-2 cell monolayer; assay type: in vitro ADME; settings: added together with BER 5 μM; verapamil 5 μM; rifampicin 5, 20, 50 μM
T1 construct: host or cells: Caco-2 (human colon adenocarcinoma) monolayers, passages 24-35
T1 sequence (P08183 whole entry): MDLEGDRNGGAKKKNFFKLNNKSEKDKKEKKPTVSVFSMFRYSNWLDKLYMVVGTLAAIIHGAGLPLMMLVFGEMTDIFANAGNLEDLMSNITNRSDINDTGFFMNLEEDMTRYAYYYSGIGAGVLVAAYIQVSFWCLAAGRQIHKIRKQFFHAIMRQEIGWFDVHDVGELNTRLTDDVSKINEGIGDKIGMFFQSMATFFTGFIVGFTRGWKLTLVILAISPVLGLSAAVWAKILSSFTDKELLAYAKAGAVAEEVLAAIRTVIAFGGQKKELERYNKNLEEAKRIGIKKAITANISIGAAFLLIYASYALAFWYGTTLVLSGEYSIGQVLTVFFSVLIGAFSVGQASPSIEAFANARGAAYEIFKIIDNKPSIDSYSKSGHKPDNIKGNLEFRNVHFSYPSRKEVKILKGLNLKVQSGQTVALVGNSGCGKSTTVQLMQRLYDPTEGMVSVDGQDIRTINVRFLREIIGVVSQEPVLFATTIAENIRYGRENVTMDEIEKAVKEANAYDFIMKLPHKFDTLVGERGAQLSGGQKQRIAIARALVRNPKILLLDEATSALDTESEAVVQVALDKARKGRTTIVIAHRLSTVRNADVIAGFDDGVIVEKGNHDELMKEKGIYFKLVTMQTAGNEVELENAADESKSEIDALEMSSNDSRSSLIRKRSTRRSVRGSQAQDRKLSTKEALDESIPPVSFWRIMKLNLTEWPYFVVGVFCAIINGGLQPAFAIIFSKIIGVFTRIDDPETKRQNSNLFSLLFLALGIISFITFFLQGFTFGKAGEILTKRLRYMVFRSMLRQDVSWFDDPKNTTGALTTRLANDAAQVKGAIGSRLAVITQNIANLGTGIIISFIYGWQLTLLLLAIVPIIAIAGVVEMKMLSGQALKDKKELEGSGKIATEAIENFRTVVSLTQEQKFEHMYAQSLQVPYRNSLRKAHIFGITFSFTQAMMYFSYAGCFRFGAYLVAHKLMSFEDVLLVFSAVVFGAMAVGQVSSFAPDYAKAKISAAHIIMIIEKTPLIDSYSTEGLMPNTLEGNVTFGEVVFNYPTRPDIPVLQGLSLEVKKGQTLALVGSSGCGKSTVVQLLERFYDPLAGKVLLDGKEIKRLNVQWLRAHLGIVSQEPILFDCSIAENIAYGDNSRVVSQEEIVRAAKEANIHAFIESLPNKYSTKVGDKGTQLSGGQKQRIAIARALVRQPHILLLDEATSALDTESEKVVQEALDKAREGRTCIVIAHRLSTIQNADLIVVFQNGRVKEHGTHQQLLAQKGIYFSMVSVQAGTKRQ
Procedure: The final concentration of GQD, GQD−GC, and Huang-Lian water extracts were 32, 28, and 6 μg/mL, respectively. […]
containing glucose (25 mM) and HEPES (10 mM). The final concentration of berberine was 5 µM. The final concentration of DMSO was below 1% (v/v). […]
inducer of Caco-2 cells, respectively. For the inhibitor experiments, the Caco-2 cells were cultivated in DMEM until the 21st day. After removal of the medium, the cells were incubated for 30 minutes with HBSS containing 5 µM of verapamil. For the inducer experiments, the cells were cultivated in DMEM until the 18th day, and then […]
was removed on the 21st day, and the cells were then incubated for 30 min with HBSS.
Berberine and glycyrrhizic acid were added to the system following HBSS incubation.
For all bidirectional transport assays, samples (300 µL) were collected after 30, 60, 90, […]
with an equal volume of HBSS. The samples were freeze-dried and then dissolved in 300 µL of methanol. The solutions were filtered through 0.22-µm membranes before […]
3. Inhibitor and inducer experiments […]
respectively. For the inhibition experiments, Caco-2 cells were cultivated in DMEM until the 21st day. After removal of the medium, the cells were incubated for 30 minutes with HBSS containing verapamil (5 µM). For induction experiments, the cells were cultivated in DMEM until the 18th day, and then cultivated in DMEM […]
The medium was removed on the 21st day, and the cells were then incubated for 30 min with HBSS. Berberine and glycyrrhizic acid were added to the system following HBSS incubation.

[2] = system: db/db mice; assay: Evaluation of anti-diabetic effects in db/db mice; assay type: in vivo; settings: P < 0.05, metformin 100 mg/kg/d
Procedure: Eight-week-old male db/db mice (30–35 g) were used, and the details were described in Supplemental Data. The mice were randomly divided into eight groups. Mice were orally administered with metformin (100 mg/kg/d, n = 6), berberine (50 mg/kg/d, n = 6), glycyrrhizic acid (80 mg/kg/d, n = 6), berberine (50 mg/kg/d) combined with low-dose of glycyrrhizic acid (50 mg/kg/d, n = 6), berberine (50 mg/kg/d) combined with high-dose of glycyrrhizic acid (80 mg/kg/d, n = 6), berberine (50 mg/kg/d) combined with Gan-Cao (2.2 g/kg/d, n = 7), and GQD (18.2 g/kg/d, n = 7) for 4 weeks. For the control group, the […] were administered with an equal volume of water. On day 28, after fasted for 12 h, retro-orbital blood samples were collected, stand for 1 h, and then centrifuged (6,000 rpm, 4°C) for 20 min to obtain serum. Biochemical indicators such as blood glucose and insulin were determined on a Mindray BS-800 analyzer (Mindray Bio-Medical Electronics Co.).
Herbal materials and extracts.
The four component herbs, Puerariae Lobatae Radix (Ge-Gen, GG), Scutellariae Radix (Huang-Qin, HQ), Coptidis Rhizoma (Huang-Lian, HL), and Glycyrrhizae Radix et Rhizoma Praeparata cum Melle (Gan-Cao, GC) were purchased from Tianheng Pharmacy. GQD was prepared by decocting the four component herbs […]
of water for three times (1.5 h, 1.5 h, 0.5 h) to obtain the extracts, followed by a pre-extraction of Ge-Gen using 200 mL of water for 0.5 h. The decoctions were combined, filtered, and concentrated in vacuum at 50 °C. GQD-GC was prepared using the same procedure, except that Gan-Cao was removed from the formula. Final concentration of the GQD-GC extract was equivalent to 1.0 g of the crude drugs per mL. For single herb extracts, the herbs were decocted in 8-fold volume of water for three times (1.5 h, 1.5 h, 0.5 h) and then concentrated. […]
For anti-diabetic study, Eight-week-old male db/db mice (30–35 g) were purchased from Card Vince Laboratory animal Co., Ltd. The mice were bred in a cage (318 × 202 × 135 mm) in a breeding room at 25 °C, 60 ± 5% humidity, and a 12-h dark-light […]
On day 28, db/db mice were fasted for 12 h, and blood was collected and centrifuged to obtain serum for insulin and biochemical tests. After that, 150 µL of plasma was prepared by adding 150 µL of internal standard solution, 150 µL of methanol, and 300 µL of acetonitrile. The processing method was consistent with sample preparation for […]
3.1. Optimization of chromatographic separation
Different solvents (67% methanol, and 100% methanol) were compared to effectively extract both hydrophilic and hydrophobic compounds of GQD. […]
better extraction recovery for most compounds. […]

[3] = Multi-component pharmacokinetic study of GQD, GQD-GC and single herb extracts in rats (plasma, LC/MS/MS); assay type: in vivo, Sprague-Dawley rats; settings: male, Sprague-Dawley, rat, plasma, plasma; for AUC(0-t): po, read-out: AUClast; for Cmax: read-out: Cmax; for half-life: read-out: T1/2 (converted); for Tmax: read-out: Tmax
Outline: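 Male Sprague-Dawley rats (220–250 g, n = 10 per group) dosed orally with GQD, GQD-GC (1.0 g crude drug/mL) or single-herb decoctions. Plasma analytes quantified by LC/MS/MS in positive-ESI SRM mode. Cmax and Tmax taken from measured data, other parameters by non-compartmental or compartmental analysis; mean ± SD.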

[4] = GC (Gan-Cao) group: rats, oral extract 2.36 g/kg
[5] = GQD group: rats, oral GQD extract 18.9 g/kg

Compound: CO[C@H]1/C=C/O[C@@]2(C)Oc3c(C)c(O)c4c(O)c(c(/C=N/N5CCN(C)CC5)c(O)c4c3C2=O)NC(=O)/C(C)=C\C=C\[C@H](C)[C@H](O)[C@@H](C)[C@@H](O)[C@@H](C)[C@H](OC(C)=O)[C@@H]1C [rifampicin, reference compound]
- effect on the efflux of BER [1]: increased
- effect on the influx of BER [1]: decreased

Compound: CN(C)C(=N)N=C(N)N [Metformin, metformin, reference compound]
- 4-week body weight [2]: significant decrease

- AUC(0-t) ([3]; 2.36 g/kg, GC (Gan-Cao) group: rats, oral extract 2.36 g/kg): 1.28 ± 0.03 ng·h/mL
- AUC(0-t) ([3]; 18.9 g/kg, GQD group: rats, oral GQD extract 18.9 g/kg): 39.2 ± 8.9 ng·h/mL
- Cmax [3, 4]: 1.16 ± 0.52 ng/mL
- half-life [3, 4]: 0.28 ± 0.08 h
- Tmax [3, 4]: 0.41 ± 0.47 h
- Cmax [3, 5]: 2.81 ± 0.87 ng/mL
- half-life [3, 5]: 3.55 ± 0.08 h
- Tmax [3, 5]: 5.33 ± 0.89 h
Compound: O=C(/C=C/c1ccc(O)cc1)c1ccc(O)cc1O [Compound 28, isoliquiritigenin]
